Measured values as given in US10428017B2, “Modulators of the cystic fibrosis transmembrane conductance regulator protein and methods of use” (AbbVie S.à.r.l., priority 2017, dated 2019).
Where two headings read alike, the source gives them in different places.

Target: T1, F508delCFTR (Homo sapiens, UniProt P13569, DEL508-508)
T1 construct: expressed in transfected cells; host or cells: CFBE4lo-F508delCFTR-HRP cells (human lung derived epithelial cell line, doxycycline-inducible)
Test: Cell Surface Expression-Horse Radish Peroxidase (CSE-HRP) Assay
Type: cell-based
Settings: for EC50: CFBE4lo-F508delCFTR-HRP cells, 18-24 hours at 33° C.; for Emax / Maximum % activity (with co-corrector): maximum at any tested concentration (up to 20 μM), normalized to on-plate positive control (2 μM co-corrector); for Maximum % activity (with co-corrector): with co-corrector 2 μM
Protocol: Cell Surface Expression-Horse Radish Peroxidase (CSE-HRP) Assay
A cellular assay for measuring the F508delCFTR cell surface expression after correction with test compounds either without or with a co-corrector (2 μM of 3-[(2R,4R)-4-({[1-(2,2-difluoro-1,3-benzodioxol-5-yl)cyclopropyl]carbonyl}amino)-7-methoxy-3,4-dihydro-2H-chromen-2-yl]benzoic acid), was developed in human lung derived epithelial cell line (CFBE4lo−) (Veit G et al, (2012) Mol Biol Cell. 23(21): 4188-4202). The development was achieved by expressing the F508delCFTR mutation along with a horseradish peroxidase (HRP) in the fourth exofacial loop, and then measuring the HRP activity using luminescence readout from these cells, CFBE4lo-F508delCFTR-HRP, that were incubated overnight with the test corrector compounds, either without or with the co-corrector. For this primary assay, the CFBE4lo-F508delCFTR-HRP cells were plated in 384-well plates (Greiner Bio-one; Cat 781080) at 4,000 cells/well along with 0.5 μg/mL doxycycline to induce the F508delCFTR-HRP expression and further incubated at 37° C., 5% CO2 for 72 hours. The test compounds were then added either without or with a co-corrector at the required concentrations and further incubated for 18-24 hours at 33° C. The highest concentration tested was 20 μM with an 8-point concentration response curve using a 3-fold dilution in both the test compound without or with the co-corrector. Three replicate plates were run to determine one EC50. All plates contained negative controls (dimethyl sulfoxide, DMSO) and positive control (2 μM of 3-[(2R,4R)-4-({[1-(2,2-difluoro-1,3-benzodioxol-5-yl)cyclopropyl]carbonyl}amino)-7-methoxy-3,4-dihydro-2H-chromen-2-yl]benzoic acid) as well as on-plate concentration response of the positive control. Post incubation, the plates were washed 5× times with Dulbecco's phosphate buffered saline (DPBS), followed by the addition of the HRP substrate, luminol (50 μL), and measuring the HRP activity using luminescence readout on EnVision® Multilabel Plate Reader (Perkin Elmer; product number 2104-0010). The raw counts from the experiment were analyzed using Accelrys® Assay Explorer v3.3.
Z′ greater than 0.5 was used as passing quality control criteria for the plates.
The Z′ is defined as: 1−[3*SDPositive Control+3*SDNegative Control/Absolute(Meanpostivie Control−MeanNegative Control)] wherein “SD” is standard deviation.
The % activity measured at each of the 8 test concentrations of the test compound added either without or with a co-corrector (2 μM of 3-[(2R,4R)-4-({[1-(2,2-difluoro-1,3-benzodioxol-5-yl)cyclopropyl]carbonyl}amino)-7-methoxy-3,4-dihydro-2H-chromen-2-yl]benzoic acid) was normalized to the on-plate positive control using the following formulae: % activity(Test compound without co-corrector)=[(test compound without co-corrector response−DMSO response)/(positive control response−DMSO response)]*100 % activity(Test compound with co-corrector)=[(test compound with co-corrector response−DMSO response)/(positive control response−DMSO response)]*100
The maximum % activity achieved for the test compound either without or with a co-corrector at any tested concentration is presented in Table 1 along with the respective EC50's calculated using the following general sigmoidal curve with variable Hill slope equation (described as Model 42 in the Accelrys® Assay Explorer v3.3 software): y=(a−d)/(1+(x/c)^b)+d
General sigmoidal curve with concentration, response, top, bottom, EC50 and Hill slope. This model describes a sigmoidal curve with an adjustable baseline, a. The equation can be used to fit curves where response is either increasing or decreasing with respect to the independent variable, “x”.
“x” is a concentration of drug under test.
“a” is the maximum response, and “d” is the minimum response
“c” is the inflection point (EC50) for the curve. That is, “y” is halfway between the lower and upper asymptotes when x=c.
“b” is the slope-factor or Hill coefficient. […]

[1] = test compound without co-corrector, HRP luminescence readout, read-out: EC50 (without co-corrector)
[2] = test compound without co-corrector
[3] = with co-corrector 2 μM 3-[(2R,4R)-4-({[1-(2,2-difluoro-1,3-benzodioxol-5-yl)cyclopropyl]carbonyl}amino)-7-methoxy-3,4-dihydro-2H-chromen-2-yl]benzoic acid, read-out: EC50 (with co-corrector)

T1 sequence (P13569 with tags, fused parts or gaps DEL508-508): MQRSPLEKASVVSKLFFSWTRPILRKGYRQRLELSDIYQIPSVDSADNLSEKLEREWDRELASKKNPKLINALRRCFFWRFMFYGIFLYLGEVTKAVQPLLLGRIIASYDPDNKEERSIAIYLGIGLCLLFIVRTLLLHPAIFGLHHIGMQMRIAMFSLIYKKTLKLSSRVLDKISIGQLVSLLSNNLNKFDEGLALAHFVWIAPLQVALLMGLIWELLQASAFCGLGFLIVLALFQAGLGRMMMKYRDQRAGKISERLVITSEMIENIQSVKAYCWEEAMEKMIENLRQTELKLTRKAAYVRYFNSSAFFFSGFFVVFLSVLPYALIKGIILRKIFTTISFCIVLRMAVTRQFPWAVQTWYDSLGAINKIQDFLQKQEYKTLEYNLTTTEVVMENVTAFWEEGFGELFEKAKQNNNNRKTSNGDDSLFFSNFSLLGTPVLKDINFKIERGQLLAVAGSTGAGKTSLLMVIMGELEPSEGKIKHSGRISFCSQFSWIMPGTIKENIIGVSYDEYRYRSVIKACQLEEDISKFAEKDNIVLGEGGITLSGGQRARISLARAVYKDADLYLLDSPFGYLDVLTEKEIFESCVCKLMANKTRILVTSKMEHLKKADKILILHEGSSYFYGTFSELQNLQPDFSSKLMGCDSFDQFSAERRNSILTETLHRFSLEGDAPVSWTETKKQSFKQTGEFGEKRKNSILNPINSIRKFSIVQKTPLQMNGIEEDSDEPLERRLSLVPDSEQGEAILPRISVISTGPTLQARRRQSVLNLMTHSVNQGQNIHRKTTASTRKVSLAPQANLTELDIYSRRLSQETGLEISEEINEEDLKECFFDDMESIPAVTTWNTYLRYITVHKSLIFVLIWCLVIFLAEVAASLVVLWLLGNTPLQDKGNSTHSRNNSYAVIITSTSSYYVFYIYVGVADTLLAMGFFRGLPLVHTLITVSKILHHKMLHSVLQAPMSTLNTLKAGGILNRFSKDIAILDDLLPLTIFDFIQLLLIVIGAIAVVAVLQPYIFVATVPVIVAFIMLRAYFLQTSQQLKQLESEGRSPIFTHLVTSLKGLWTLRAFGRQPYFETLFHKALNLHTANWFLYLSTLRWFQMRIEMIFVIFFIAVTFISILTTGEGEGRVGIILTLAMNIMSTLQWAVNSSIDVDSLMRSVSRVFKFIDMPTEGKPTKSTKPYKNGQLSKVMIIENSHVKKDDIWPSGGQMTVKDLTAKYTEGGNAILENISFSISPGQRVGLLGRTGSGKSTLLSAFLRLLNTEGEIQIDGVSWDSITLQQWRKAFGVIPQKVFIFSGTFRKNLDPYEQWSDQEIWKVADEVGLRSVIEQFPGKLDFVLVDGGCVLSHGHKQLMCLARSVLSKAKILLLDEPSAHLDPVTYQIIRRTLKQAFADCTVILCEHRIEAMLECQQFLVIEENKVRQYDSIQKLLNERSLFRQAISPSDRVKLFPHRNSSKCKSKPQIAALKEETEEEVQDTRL

Row | EC50 [1] | Emax [2] | EC50 [3] | Maximum % activity (with co-corrector) | Structure (SMILES)
1 | 3 to 10 µM | ≥ 150% | < 3 µM | +++ (≥350) | COc1ccc(Br)c2c1[C@@H](C(=O)NS(=O)(=O)c1cccc3ncccc13)CC(C)(C)O2 [Example 71, (4S)-8-bromo-5-methoxy-2,2-dimethyl-N-(quinoline-5-sulfonyl)-3,4-dihydro-2H-1-benzopyran-4-carboxamide]
2 | < 3 µM | ≥ 150% | < 3 µM | +++ (≥350) | COc1ccc(C2CCC2)c2c1[C@@H](C(=O)NS(=O)(=O)c1cccc3ccccc13)CO2 [Example 66, (3R)-7-cyclobutyl-4-methoxy-N-(naphthalene-1-sulfonyl)-2,3-dihydro-1-benzofuran-3-carboxamide]
3 | < 3 µM | ≥ 150% | < 3 µM | +++ (≥350) | COc1cccc2c1C(C(=O)NS(=O)(=O)c1cccc3ccccc13)CC1(CCCCC1)O2 (stereo not shown) [Example 38, 5-methoxy-N-(naphthalene-1-sulfonyl)-3,4-dihydrospiro[1-benzopyran-2,1′-cyclohexane]-4-carboxamide]
4 | 3 to 10 µM | ≥ 150% | 3 to 10 µM | +++ (≥350) | CCC1(C(=O)NS(=O)(=O)c2cccc3ccccc23)COc2c(Br)cccc21 (stereo not shown) [Example 22, 7-bromo-3-ethyl-N-(naphthalene-1-sulfonyl)-2,3-dihydro-1-benzofuran-3-carboxamide]
5 | < 3 µM | ≥ 150% | < 3 µM | +++ (≥350) | COc1ccc(Cl)c2c1C(C(=O)NS(=O)(=O)c1cccc3ccccc13)CC(C)(C)O2 (stereo not shown) [Example 51, 8-chloro-5-methoxy-2,2-dimethyl-N-(naphthalene-1-sulfonyl)-3,4-dihydro-2H-1-benzopyran-4-carboxamide]
6 | 3 to 10 µM | ≥ 150% | 3 to 10 µM | +++ (≥350) | COc1cccc2c1C(C(=O)NS(=O)(=O)c1cccc3ccccc13)CCO2 (stereo not shown) [Example 9, 5-methoxy-N-(naphthalene-1-sulfonyl)-3,4-dihydro-2H-1-benzopyran-4-carboxamide]
7 | 3 to 10 µM | ≥ 150% | < 3 µM | +++ (≥350) | COc1ccc(C2CC2)c2c1C(C(=O)NS(=O)(=O)c1cccc3ccccc13)CCO2 (stereo not shown) [Example 64, 8-cyclopropyl-5-methoxy-N-(naphthalene-1-sulfonyl)-3,4-dihydro-2H-1-benzopyran-4-carboxamide]

Further lines, the compound ahead of its results:

Row | Structure (SMILES) | EC50 [1] | Emax [2] | EC50 [3] | Maximum % activity (with co-corrector)
8 | C[C@@]1(C(=O)NS(=O)(=O)c2cccc3ccccc23)COc2cc3c(cc21)OC(F)(F)O3 [Example 32, (7S)-2,2-difluoro-7-methyl-N-(naphthalene-1-sulfonyl)-6,7-dihydro-2H-furo[2,3-f][1,3]benzodioxole-7-carboxamide] | 3 to 10 µM | < 50% | 3 to 10 µM | ++ (≥150 and <350)
9 | Cc1ccccc1S(=O)(=O)NC(=O)C1COc2ccccc21 (stereo not shown) [Example 29, N-(2-methylbenzene-1-sulfonyl)-2,3-dihydro-1-benzofuran-3-carboxamide] | ≥ 10 µM | < 50% | ≥ 10 µM | + (<150)
10 | COc1ccc(Br)c2c1[C@@H](C(=O)NS(=O)(=O)c1cccc3ccccc13)CO2 (single isomer, unassigned) [Example 73] | 3 to 10 µM | 50 to 150% | 3 to 10 µM | ++ (≥150 and <350)
11 | COc1ccc(Br)c2c1CCOC2C(=O)NS(=O)(=O)c1cccc2ccccc12 (stereo not shown) [Example 108, 8-bromo-5-methoxy-N-(naphthalene-1-sulfonyl)-3,4-dihydro-1H-2-benzopyran-1-carboxamide] | 3 to 10 µM | 50 to 150% | < 3 µM | +++ (≥350)
12 | COc1cccc2c1C(C(=O)NS(=O)(=O)c1cccc3ncccc13)CC(C)(C)O2 (stereo not shown) [Example 48, 5-methoxy-2,2-dimethyl-N-(quinoline-5-sulfonyl)-3,4-dihydro-2H-1-benzopyran-4-carboxamide] | 3 to 10 µM | ≥ 150% | 3 to 10 µM | +++ (≥350)
13 | O=C(NS(=O)(=O)c1cccc2ccccc12)C1(c2ccccc2)CCOc2ccc(Cl)cc21 (stereo not shown) [Example 19, 6-chloro-N-(naphthalene-1-sulfonyl)-4-phenyl-3,4-dihydro-2H-1-benzopyran-4-carboxamide] | 3 to 10 µM | ≥ 150% | 3 to 10 µM | +++ (≥350)
14 | COc1ccc(Br)c2c1C(C(=O)NS(=O)(=O)c1cccc3ccccc13)CC1(CCCCC1)O2 (stereo not shown) [Example 41, 8-bromo-5-methoxy-N-(naphthalene-1-sulfonyl)-3,4-dihydrospiro[1-benzopyran-2,1′-cyclohexane]-4-carboxamide] | < 3 µM | ≥ 150% | < 3 µM | +++ (≥350)
15 | COc1ccc(C2CCC2)c2c1OCC[C@H]2C(=O)NS(=O)(=O)c1cccc2ncccc12 (single isomer, unassigned) [Example 106] | < 3 µM | ≥ 150% | < 3 µM | +++ (≥350)
16 | COc1ccc(Br)c2c1[C@@H](C(=O)NS(=O)(=O)c1cccc3ccccc13)CCO2 [Example 35, (4S)-8-bromo-5-methoxy-N-(naphthalene-1-sulfonyl)-3,4-dihydro-2H-1-benzopyran-4-carboxamide] | 3 to 10 µM | 50 to 150% | 3 to 10 µM | +++ (≥350)
17 | O=C(NS(=O)(=O)c1cccc2ccccc12)C1COc2ccccc21 (stereo not shown) [Example 34, N-(naphthalene-1-sulfonyl)-2,3-dihydro-1-benzofuran-3-carboxamide] | ≥ 10 µM | < 50% | ≥ 10 µM | + (<150)
18 | COc1ccc(Br)c2c1[C@@H](C(=O)NS(=O)(=O)c1cccc3cnn(C)c13)CCO2 [Example 69, (4S)-8-bromo-5-methoxy-N-(1-methyl-1H-indazole-7-sulfonyl)-3,4-dihydro-2H-1-benzopyran-4-carboxamide] | 3 to 10 µM | 50 to 150% | 3 to 10 µM | ++ (≥150 and <350)
19 | COc1ccc(C#N)c2c1C(C(=O)NS(=O)(=O)c1cccc3ccccc13)CC(C)(C)O2 (stereo not shown) [Example 50, 8-cyano-5-methoxy-2,2-dimethyl-N-(naphthalene-1-sulfonyl)-3,4-dihydro-2H-1-benzopyran-4-carboxamide] | 3 to 10 µM | 50 to 150% | < 3 µM | +++ (≥350)
